Reference: paper PMC3871595, “Structure Based Identification and Characterization of Flavonoids That Disrupt Human Papillomavirus-16 E6 Function” (PLoS ONE, 2013)

What was measured:
[1] = target: E6 fused to a GB1-fusion tag (GBF) (Human papillomavirus type 16, UniProt P03126); experiment: surface plasmon resonance direct binding, immobilized GBF-E6; set-up: species or system HPV-16; settings: 1.6-12.5 µM
Method: A reference cell with immobilized GBF was performed simultaneously for background subtraction. […] While direct binding was observed, the data could not be properly fit to determine binding affinity.
(§1) SPR analysis was performed on a Biacore 3000 instrument. Immobilized GBFE6 [43] was diluted to 30μg/mL in 10 mM sodium acetate, pH 4.0 and 5.0 and immobilized onto the dextran matrix of a CM5 sensor chip (Biacore) using the amine coupling method. All binding experiments were performed at 25 °C in 50 mM phosphate (pH 6.5) containing 200 mM NaCl. Pulses of 10 mM glycine (pH 3.0) were used to regenerate the surfaces between injections. […] SPR data were analyzed using BIAevaluation 4.1 software (Biacore).

[2] = target: GBF-E6 binding to E6apc2 peptide (Human papillomavirus type 16, UniProt P03126); experiment: SPR competition, immobilized E6apc2 peptide, GBF-E6 analyte; set-up: species or system HPV-16; settings: 1.6-12.5 µM
Method: The E6apc2 peptide was derived from the third zinc finger of the Sp1 protein and incorporates 10 amino acids from the charged helical domain of E6AP ([…]) at its C-terminus. […] In this experiment, E6apc2 was immobilized while E6apc1 control (E6-non-binder) was immobilized in a reference cell.
as §1

[3] = target: T1, interaction between GST-E6 and three PDZ domains of hDlg fused to BAP (hDlg-BAP) (Human papillomavirus type 16, UniProt P03126); experiment: E6/hDlg-BAP specificity filter binding assay; set-up: species or system HPV-16
T1 construct: made in house; host or cells: E. coli BL21
Method: This interaction between E6 and hDlg occurs at the C-terminus of E6 and is independent of the interaction between E6 and the charged leucine helix in E6AP [21, 22].
Pre-Block - 96-well filter plates were prepared (0.2 µm BioTrace NT, Pall). 100µL of blocking buffer (100 mM Tris pH 8.0, 100 mM NaCl, 0.1% milk) was added per well. Plates were blocked for 1 hr at RT on an orbital shaker. Buffer was removed by vacuum filtration using a vacuum manifold. GST-E6 Bead addition – GST-E6 beads were prepared at 5µg/mL in GST-E6 bead buffer (100 mM Tris pH 8.0, 100 mM NaCl, 0.1% milk, 2.5 mM DTT). 100µL of GST-E6 bead mix was added per well and incubated for 1 hr at 4°C. Buffer was removed by vacuum filtration. […] 48 µL of each reagent was added per well. For drug assay, 2µL of compound was added to each well and mixed thoroughly. […] Plates were incubated for 1-3 hours at RT on an orbital shaker. Buffer was removed by vacuum filtration. Plates were washed on the vacuum manifold, first with 200 µL buffer (100 mM Tris pH 8.0, 100 mM NaCl, 1 mM DTT), and twice more with 100µL lysis buffer without DTT. […] 60 µL of Immunostar-AP assay reagent was added, the BAP activity was allowed to develop for 10 minutes and the plates were read on a Wallace Luminometer. BAP activity was measured as relative light units (RLU) on a luminometer using the Immunostar-AP substrate (BioRad).

RPE-1 cells = experiment: cell viability (MTS, Celltiter 96 AQueous) RPE-1; type: cell-based, human; settings: RPE-1 (HPV negative), 48 to 96 hours, relative to DMSO
C33a cells = experiment: cell viability (MTS, Celltiter 96 AQueous) C33a; type: cell-based, human; settings: C33a (HPV negative), 48 to 96 hours, relative to DMSO
Method: (§2) HPV-18 positive HeLa cells and two additional control cell lines, C33a, a cell line derived from an HPV-negative human cervical cancer isolate, and HaCat, a spontaneously immortalized human keratinocyte cell line, were used to assess compounds for their impact on cell growth and viability. All cells were incubated for 48 to 96 hours with increasing doses of compound. Cell viability was measured by MTS based assay and % viability quantified relative to cells treated with DMSO.
(§3) For cell viability, 12,000 cells per cm^2 were plated in 96-well dishes 24 hours prior to drug addition. Fresh media and compound were added. Plates were read after 72-96 hours. Relative cell viability was assayed as directed in the Celltiter 96 AQueous one solution assay (Promega). For caspase activity, plates were assayed after 4, 8, 12, 24, or 48 hours as described for the Caspase-Glo 3/7 assay (Promega).

HaCat cells = experiment: cell viability (MTS, Celltiter 96 AQueous) HaCat; type: cell-based, human; settings: HaCat (HPV negative), 48 to 96 hours, relative to DMSO
Method: as §2, §3

Sequence of E6 fused to a GB1-fusion tag (GBF) (P03126 whole entry, the tested form may be a part): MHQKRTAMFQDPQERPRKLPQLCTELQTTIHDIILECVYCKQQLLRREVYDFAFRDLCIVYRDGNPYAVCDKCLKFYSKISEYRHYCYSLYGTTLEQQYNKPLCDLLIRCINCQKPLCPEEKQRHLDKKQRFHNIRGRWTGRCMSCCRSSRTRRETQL
T1 sequence (P03126 whole entry, the tested form may be a part): as above
Sequence of GBF-E6 binding to E6apc2 peptide (P03126 whole entry, the tested form may be a part): as above

Structure (SMILES)	direct binding to E6 (SPR response) [1]	competition with E6apc2 peptide for binding to GBF-E6 [2]	specificity against hDlg control binding reaction [3]	cell growth and viability (RPE-1 cells)	cell growth and viability (C33a cells)	cell growth and viability (HaCat cells)
O=c1cc(-c2ccc(O)c(O)c2)oc2cc(O)cc(O)c12 [luteolin, reference compound]	directly binds to E6 protein	directly competed with the peptide for binding to GBF-E6				
COc1cccc(-c2cc(=O)c3cc(-c4nnn[nH]4)ccc3o2)c1 [CAF-24]			increased specificity against the FLAG and hDlg control binding reactions	little effect on the viability	little effect on the viability	little effect on the viability
